Source: patent US12411142B2, “Method for measuring the trimethylamine n-oxide production capacity in an individual” (NATIONAL TAIWAN UNIVERSITY, priority 2018, dated 2025)

Assay: Pharmacokinetic study of the oral carnitine challenge test (OCCT)
Format: in vivo, human
Conditions: 13 volunteers
Procedure: Oral carnitine challenge test (OCCT): All the participants fasted overnight (>8 hours) before the OCCT. Fasting blood and spot urine samples were collected as baseline, and three tablets of L-carnitine fumarate (GNC) were then administered orally to the participants. Subsequently, the participants underwent time-series blood drawings with concurrent spot urine collections at 24 hours and 48 hours after the oral carnitine challenge. The participants were requested to provide urine samples within 2 hours of blood sample collections. All the participants were asked to avoid red meat, seafood and any medication during the period of the carnitine challenge test. The plasma and urine samples were aliquoted after centrifugation at 3000 rpm and stored in a freezer at −20° C. Ten carnitine tablets (GNC) were examined through HPLC to verify the amount of L-carnitine used in the OCCT. The mean dose of carnitine fumarate in each tablet was 693.5 (SD±63.2) mg (≈400 mg L-carnitine/tablet).
Pharmacokinetic study of plasma TMAO by oral administration of carnitine: Thirteen independent volunteers were recruited for a pharmacokinetic study of the OCCT. After the oral carnitine challenge, blood samples were collected at 4, 8, 12, 24, 36 and 48 hours. Six of the volunteers agreed to participate in the same pharmacokinetic test again 3 months later. All the volunteers signed informed consent waivers provided by the Institutional Review Board of National Taiwan University Hospital.
Plasma TMAO peaked in the interval between 24 hours and 48 hours of the OCCT: This example assumed that TMAO formation in blood occurred at approximately 24 hours of the OCCT based on the time required for bowel transit, microbial catabolism and the enzymatic reaction of hepatic FMO3 to convert the ingested carnitine into plasma TMAO. The example performed a pharmacokinetic study of the OCCT to confirm this hypothesis (FIG. 4). In the study, 13 participants received seven blood tests at indicated time points after ingestion of three tablets of L-carnitine fumarate (General Nutrition Centers (GNC), Pennsylvania, USA). […]

[1] = three tablets of L-carnitine fumarate orally

**Q.** Which “time at which plasma carnitine level peaked after OCCT” value (three tablets of L-carnitine fumarate (GNC, approximately 1200 mg L-carnitine) orally) does the source give for `C[N+](C)(C)C[C@H](O)CC(=O)[O-].O=C(O)/C=C/C(=O)O` [L-carnitine fumarate] here?
**A.** 4 h

**Q.** What about the “plasma TMA level after OCCT” value [1] of the same compound?
**A.** very low concentration

**Q.** And the “plasma γ-butyrobetaine level after OCCT” value [1]?
**A.** very low concentration
